Test results: patent publication US9321790B2, “Pyrimidinone derivatives as antimalarial agents” (SANOFI, priority 2012, dated 2016)

Columns and labels:
[1] = test system: Plasmodium falciparum (strain NF54); experiment: Antimalarial activity test: growth of Plasmodium falciparum in infected human erythrocytes, 3H-hypoxanthine incorporation; type: cell-based; conditions: strain NF54 sensitive to chloroquine, 72 h total incubation
How it was run: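 Chloroquine-sensitive NF54 parasites in human erythrocytes (1.25% hematocrit, 0.15% parasitemia) were grown in hypoxanthine-free RPMI 1640 with HEPES and Albumax II, with compound in twofold serial dilution, at 37 °C under 93% N2/4% CO2/3% O2. After 48 h, 3H-hypoxanthine (0.5 μCi) was added for 24 h. Scintillation counts versus drug-free control gave IC50.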

human PI3Kα = human PI3Kα (Homo sapiens (Human), UniProt P42336); experiment: Human PI3Kα activity test (luciferin/luciferase ATP consumption, KinaseGlo); type: biochemical; conditions: PI3Kα (p110α/p85α), 50 μM PIP2, 2 μM ATP, 90 minutes; read-out: IC50 Human PI3Kα
human PI3Kα, sequence (P42336 whole entry): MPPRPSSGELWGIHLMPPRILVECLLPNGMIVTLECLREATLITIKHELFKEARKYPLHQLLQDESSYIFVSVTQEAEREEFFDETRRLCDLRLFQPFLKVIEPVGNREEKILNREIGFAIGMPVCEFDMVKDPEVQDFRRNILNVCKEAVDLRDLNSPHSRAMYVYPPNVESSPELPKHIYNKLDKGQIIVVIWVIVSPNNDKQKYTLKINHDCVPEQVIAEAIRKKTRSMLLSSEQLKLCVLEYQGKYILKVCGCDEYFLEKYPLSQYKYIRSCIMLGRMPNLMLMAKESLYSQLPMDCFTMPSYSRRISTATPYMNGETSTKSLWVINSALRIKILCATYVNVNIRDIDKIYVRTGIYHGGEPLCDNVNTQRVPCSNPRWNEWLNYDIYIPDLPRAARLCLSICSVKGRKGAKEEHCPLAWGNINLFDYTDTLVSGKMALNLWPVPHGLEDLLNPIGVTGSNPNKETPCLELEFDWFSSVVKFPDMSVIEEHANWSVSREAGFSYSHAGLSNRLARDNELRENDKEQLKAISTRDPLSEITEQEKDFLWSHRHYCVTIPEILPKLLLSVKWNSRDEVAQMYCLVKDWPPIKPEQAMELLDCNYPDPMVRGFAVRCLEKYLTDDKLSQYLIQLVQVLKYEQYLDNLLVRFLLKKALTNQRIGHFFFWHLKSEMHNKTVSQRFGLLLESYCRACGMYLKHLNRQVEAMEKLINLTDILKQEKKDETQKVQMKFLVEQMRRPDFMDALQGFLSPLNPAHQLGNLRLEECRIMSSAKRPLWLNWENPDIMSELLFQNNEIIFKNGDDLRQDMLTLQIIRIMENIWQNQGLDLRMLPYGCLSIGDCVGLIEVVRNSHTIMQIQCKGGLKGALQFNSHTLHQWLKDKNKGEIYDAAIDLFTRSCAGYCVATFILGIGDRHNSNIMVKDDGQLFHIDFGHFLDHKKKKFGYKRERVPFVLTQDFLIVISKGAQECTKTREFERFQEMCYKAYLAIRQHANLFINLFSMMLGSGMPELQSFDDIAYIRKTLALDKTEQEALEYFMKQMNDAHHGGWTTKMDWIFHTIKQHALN
human PI3Kα, sequence (P27986 whole entry partner): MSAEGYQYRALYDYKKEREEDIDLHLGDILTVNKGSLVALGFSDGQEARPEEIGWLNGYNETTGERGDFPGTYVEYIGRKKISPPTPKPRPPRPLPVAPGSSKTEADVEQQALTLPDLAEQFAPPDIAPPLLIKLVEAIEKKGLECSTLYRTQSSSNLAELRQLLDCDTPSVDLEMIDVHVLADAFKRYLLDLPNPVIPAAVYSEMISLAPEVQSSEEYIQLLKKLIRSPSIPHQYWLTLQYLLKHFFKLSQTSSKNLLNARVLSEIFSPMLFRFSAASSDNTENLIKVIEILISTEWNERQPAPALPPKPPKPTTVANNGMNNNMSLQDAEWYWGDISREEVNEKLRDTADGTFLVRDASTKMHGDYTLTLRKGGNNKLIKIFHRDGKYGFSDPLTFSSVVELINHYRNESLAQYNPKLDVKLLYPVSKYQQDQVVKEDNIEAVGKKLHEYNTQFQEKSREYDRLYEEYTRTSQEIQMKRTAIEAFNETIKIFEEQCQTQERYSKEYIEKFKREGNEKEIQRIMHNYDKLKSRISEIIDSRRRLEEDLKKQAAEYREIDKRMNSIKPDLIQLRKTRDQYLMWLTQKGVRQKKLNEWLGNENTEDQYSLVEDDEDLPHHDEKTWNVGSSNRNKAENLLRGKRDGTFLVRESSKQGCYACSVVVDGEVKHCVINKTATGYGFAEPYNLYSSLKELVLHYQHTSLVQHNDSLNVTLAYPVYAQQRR
Procedure: The test uses a luciferin/luciferase system to measure the concentration of ATP and its consumption during the enzymatic reaction.
After 90 minutes, the reaction is quenched by adding 20 μl/well of KinaseGlo reagent (Promega V6713). After 10 minutes in the dark, the luminescence is read using a PHERAStar microplate reader (reading at 0.8 sec/well).

[2] = Plasmodium falciparum, Erythrocyte

Row | IC50 [1, 2] | IC50 (human PI3Kα) | SMILES | IC50 [1]
1 | 0.075 µM | 0.84 µM | O=c1cc(N2C[C@@H]3C[C@H]2CO3)nc2n1CC[C@@H](C(F)(F)F)N2CC(O)(C1CC1)C1CC1 [Compound 103, (8S)-9-(2,2-Dicyclopropyl-2-hydroxyethyl)-2-(1S,4S)-2-oxa-5-azabicyclo[2.2.1]hept-5-yl-8-trifluoromethyl-6,7,8,9-tetrahydropyrimido[1,2-a]pyrimidin-4-one] | 
2 | 0.012 µM | 0.93 µM | O=c1cc(N2C[C@@H]3C[C@H]2CO3)nc2n1CC[C@@H](C(F)(F)F)N2CC1(O)CC1 [Compound 104, (8S)-9-(1-hydroxycyclopropylmethyl)-2-(1S,4S)-2-oxa-5-azabicyclo[2.2.1]hept-5-yl-8-trifluoromethyl-6,7,8,9-tetrahydropyrimido[1,2-a]pyrimidin-4-one] | 
3 | 0.024 µM | 1.9 µM | O=c1cc(N2C[C@@H]3C[C@H]2CO3)nc2n1CC[C@@H](C(F)(F)F)N2CCC1(O)CC1 [Compound 105, (8S)-9-[2-(1-Hydroxycyclopropyl)ethyl]-2-(1S,4S)-2-oxa-5-azabicyclo[2.2.1]hept-5-yl-8-trifluoromethyl-6,7,8,9-tetrahydropyrimido[1,2-a]pyrimidin-4-one] | 
4 | 0.013 µM | > 10 µM | O=c1cc(N2C[C@@H]3C[C@H]2CO3)nc2n1CC[C@@H](C(F)(F)F)N2Cc1cccc2ncccc12 [Compound 106, (8S)-2-(1S,4S)-2-oxa-5-azabicyclo[2.2.1]hept-5-yl-9-quinolin-5-ylmethyl-8-trifluoromethyl-6,7,8,9-tetrahydropyrimido[1,2-a]pyrimidin-4-one] | 
5 | 0.1 µM | > 10 µM | Cc1nscc1C(=O)CN1c2nc(N3C[C@@H]4C[C@H]3CO4)cc(=O)n2CC[C@H]1C(F)(F)F [Compound 107, (8S)-9-[2-(3-Methylisothiazol-4-yl)-2-oxoethyl]-2-(1S,4S)-2-oxa-5-azabicyclo[2.2.1]hept-5-yl-8-trifluoromethyl-6,7,8,9-tetrahydropyrimido[1,2-a]pyrimidin-4-one] | 
6 | 0.086 µM | > 10 µM | CS(=O)(=O)c1ccc(C(=O)CN2c3nc(N4C[C@@H]5C[C@H]4CO5)cc(=O)n3CC[C@H]2C(F)(F)F)cc1 [Compound 108, (8S)-9-[2-(4-Methanesulfonylphenyl)-2-oxoethyl]-2-(1S,4S)-2-oxa-5-azabicyclo[2.2.1]hept-5-yl-8-trifluoromethyl-6,7,8,9-tetrahydropyrimido[1,2-a]pyrimidin-4-one] | 
7 | 0.079 µM | 7.8 µM | O=c1cc(N2C[C@@H]3C[C@H]2CO3)nc2n1CC[C@@H](C(F)(F)F)N2Cc1cccc2cnccc12 [Compound 109, (8S)-9-Isoquinolin-5-ylmethyl-2-(1S,4S)-2-oxa-5-azabicyclo[2.2.1]hept-5-yl-8-trifluoromethyl-6,7,8,9-tetrahydropyrimido[1,2-a]pyrimidin-4-one] | 
8 | 0.33 µM | > 10 µM | O=C(CN1c2nc(N3C[C@@H]4C[C@H]3CO4)cc(=O)n2CC[C@H]1C(F)(F)F)N1CCOCC1 [Compound 110, (8S)-9-(2-Morpholin-4-yl-2-oxoethyl)-2-(1S,4S)-2-oxa-5-azabicyclo[2.2.1]hept-5-yl-8-trifluoromethyl-6,7,8,9-tetrahydropyrimido[1,2-a]pyrimidin-4-one] | 
9 | 0.005 µM | 0.33 µM | O=c1cc(N2C[C@@H]3C[C@H]2CO3)nc2n1CC[C@@H](C(F)(F)F)N2CCc1ccc(OCCN2CCOCC2)cc1 [Compound 111, (8S)-9-{2-[4-(2-Morpholin-4-ylethoxy)phenyl]ethyl}-2-(1S,4S)-2-oxa-5-azabicyclo[2.2.1]hept-5-yl-8-trifluoromethyl-6,7,8,9-tetrahydropyrimido[1,2-a]pyrimidin-4-one] | 
10 |  | > 10 µM | CON(C)C(=O)CN1c2nc(N3C[C@@H]4C[C@H]3CO4)cc(=O)n2CC[C@H]1C(F)(F)F [Compound 112, N-Methoxy-N-methyl-2-((S)-8-(1S,4S)-2-oxa-5-azabicyclo[2.2.1]hept-5-yl-6-oxo-2-trifluoromethyl-3,4-dihydro-2H,6H-pyrimido[1,2-a]pyrimidin-1-yl)acetamide] | 0.2 µM
11 | 0.43 µM | > 10 µM | O=C(CN1c2nc(N3C[C@@H]4C[C@H]3CO4)cc(=O)n2CC[C@H]1C(F)(F)F)c1ccc2nccn2c1 [Compound 113, (8S)-9-(2-Imidazo[1,2-a]pyrid-6-yl-2-oxoethyl)-2-(1S,4S)-2-oxa-5-azabicyclo[2.2.1]hept-5-yl-8-trifluoromethyl-6,7,8,9-tetrahydropyrimido[1,2-a]pyrimidin-4-one] | 
12 | 0.245 µM | > 10 µM | O=C(CN1c2nc(N3C[C@@H]4C[C@H]3CO4)cc(=O)n2CC[C@H]1C(F)(F)F)c1ccc(OC(F)F)nc1 [Compound 114, (S)-9-[2-(6-difluoromethoxypyrid-3-yl)-2-oxoethyl]-2-(1S,4S)-2-oxa-5-azabicyclo[2.2.1]hept-5-yl-8-trifluoromethyl-6,7,8,9-tetrahydropyrimido[1,2-a]pyrimidin-4-one] | 
13 | 0.003 µM | 0.59 µM | O=C(COc1ccc(CCN2c3nc(N4C[C@@H]5C[C@H]4CO5)cc(=O)n3CC[C@H]2C(F)(F)F)cc1)N1CCOCC1 [Compound 115, (S)-9-{2-[4-(2-Morpholin-4-yl-2-oxoethoxy)phenyl]ethyl}-2-(1S,4S)-2-oxa-5-azabicyclo[2.2.1]hept-5-yl-8-trifluoromethyl-6,7,8,9-tetrahydropyrimido[1,2-a]pyrimidin-4-one] | 
14 | 0.117 µM | > 10 µM | Cn1cc(CN2c3nc(N4C[C@@H]5C[C@H]4CO5)cc(=O)n3CC[C@H]2C(F)(F)F)c(C(F)(F)F)n1 [Compound 116, (8S)-9-(1-Methyl-3-trifluoromethyl-1H-pyrazol-4-ylmethyl)-2-(1S,4S)-2-oxa-5-azabicyclo[2.2.1]hept-5-yl-8-trifluoromethyl-6,7,8,9-tetrahydropyrimido[1,2-a]pyrimidin-4-one] | 
15 | 0.006 µM | 0.38 µM | CN(C)CCOc1ccc(CCN2c3nc(N4C[C@@H]5C[C@H]4CO5)cc(=O)n3CC[C@H]2C(F)(F)F)cc1 [Compound 117, (8S)-9-{2-[4-(2-Dimethylaminoethoxyl)phenyl]ethyl}-2-(1S,4S)-2-oxa-5-azabicyclo[2.2.1]hept-5-yl-8-trifluoromethyl-6,7,8,9-tetrahydropyrimido[1,2-a]pyrimidin-4-one] | 
16 | 0.03 µM | > 10 µM | CC(=O)N1CCC(C(=O)CN2c3nc(N4C[C@@H]5C[C@H]4CO5)cc(=O)n3CC[C@H]2C(F)(F)F)CC1 [Compound 119, (8S)-9-[2-(1-Acetylpiperid-4-yl)-2-oxoethyl]-2-(1S,4S)-2-oxa-5-azabicyclo[2.2.1]hept-5-yl-8-trifluoromethyl-6,7,8,9-tetrahydropyrimido[1,2-a]pyrimidin-4-one] | 

Row | SMILES | IC50 [1, 2] | IC50 (human PI3Kα) | IC50 [1]
17 | O=CN1CCC(C(=O)CN2c3nc(N4C[C@@H]5C[C@H]4CO5)cc(=O)n3CC[C@H]2C(F)(F)F)CC1 [Compound 118, 4-[2-((S)-8-(1S,4S)-2-Oxa-5-azabicyclo[2.2.1]hept-5-yl-6-oxo-2-trifluoromethyl-3,4-dihydro-2H,6H-pyrimido[1,2-a]pyrimidin-1-yl)acetyl]piperidine-1-carbaldehyde] |  | > 10 µM | 0.015 µM
